Source: a melting point compilation (Tetko et al.; mined from patent text by program, amines drawn as free bases though some values may be those of a salt)

melting point [°C]	Compound
117 to 120	CCc1ccc2cc[nH]c2n1
189	Cc1ccc(C(=O)c2cc(-c3ccc(S(C)(=O)=O)cc3)c(N3CCOCC3)s2)cc1
98.8 to 99	COCOc1ccc(C(=O)OC)c(OCc2ccc(Cl)cc2Cl)c1C
118 to 119	CC(C)(C)[Si](C)(C)Oc1ccc2c(c1)oc(=O)c1c3ccc(O[Si](C)(C)C(C)(C)C)cc3oc21
108 to 109	CC1(C)OC[C@@H](CNc2ccc3cc(OCC4CC4)ccc3c2)O1
235	OC1CSC(Oc2cncc(-c3cc4ccccc4s3)c2)C(O)C1O (centres undefined)
78 to 79	CCOC(=O)c1cnn(Cc2ccccc2)c1-c1ccccc1
191 to 193	COC(=O)C1=Cc2cc(-c3ccc(OC)cc3)ccc2S(=O)(=O)CC1
44 to 46	COC(=O)C[C@H](CC(=O)O[Si](C)(C)C(C)(C)C)O[Si](C)(C)C(C)(C)C
175 to 185	O=C(O)c1cccc(-c2ccc3c(c2)C(Oc2cccc(C(F)(F)F)c2)CC3)c1 (centres undefined)
203	CC(C)Oc1ccc(-n2c(CC(=O)O)c(C(=O)O)c3cc(Oc4cccc(C(F)(F)F)c4)ccc32)cc1
119 to 122	Cc1nc(N2CCc3ccccc3CC2)c(C#N)c(=O)n1CC1CC1
210 to 212	CCNC(=O)N1CCc2[nH]cnc2C1CCC1CCCCC1 (centres undefined)
116 to 118	Cn1cc(C(O)(c2ccc3c(cnn3C(=O)NC3CC3)c2)C(F)(F)F)c2ccccc21 (centres undefined)
80	O=C(O)Cc1cccc(CNC(=O)C2Cc3ccccc3N2S(=O)(=O)c2ccc(-c3cccc(C(F)(F)F)c3)cc2)c1 (centres undefined)
72 to 73	C[Si](C)(C)OC1(C#N)CCOc2ccc(Cl)cc21 (centres undefined)
58 to 59	COC(=O)C=Cc1ccc(OCCCCl)cc1
53 to 55	CCCCc1ccc(CC(=O)c2ccccc2)cc1
137 to 138	CC(O)(CC(=O)O)c1ccc(Oc2ccccc2)cc1 (centres undefined)
58 to 61	Cc1ccc(C)c(C(=O)c2cc(Cl)ccc2Cl)c1
118 to 122	Cc1ccc([C@@H]2c3c(C)c(N4C(=O)CC(c5ccccc5)CC4=O)c(C)c(C)c3OC2(C)C)cc1
67 to 68	CS(=O)c1ccc(-c2cn3c(c2-c2ccccc2)CCC3)cc1 (centres undefined)
99.1	COc1ccc(ON2CN=C(c3ccccc3F)O2)cc1
218 to 222	CCn1c(C)c(C2(c3ccc(N(C)C)cc3N(C)C)OC(=O)c3ccccc32)c2ccccc21 (centres undefined)

melting point [°C]	Compound
76 to 78	CCN(CC)CCNC(=O)c1cc(Cl)c(N)cc1OCCC(C)OC (centres undefined)
58 to 59	CC(C)COC(=O)N[C@@H](Cc1ccccc1)C(=O)CSCc1ccco1
184 to 185	COc1ccc(CCc2ccc(NC(=O)C(=O)C3=C(O)c4ccccc4SC3)cc2)cc1OC
94 to 95	CC(C)(C)OC(=O)N[C@H](CC(=O)OCc1ccccc1)C(=O)N[C@H](CO)Cc1ccccc1
161	CC(C)(C)OC(=O)NC(CC(=O)ON1C(=O)CCC1=O)c1ccc(-c2ccccc2)cc1 (centres undefined)
260	CCN(CC)C(=O)Nc1ccc(S(=O)(=O)N2C(=O)C(NCCN3CCNCC3)(c3ccccc3Cl)c3cc(Cl)ccc32)cc1 (centres undefined)
128 to 129	N#Cc1ccc(OCCCOc2cccc(-c3cc4ccc(C#N)cc4o3)c2)cc1
88 to 90	CCOC(=O)C(C(=O)Nc1ccc(C)cc1)(c1ccccc1)c1ccccc1
177 to 178	CCCN=C(N)Nc1ccnc(SC)n1
150 to 152	O=C(C=Cc1ccncc1)c1cccs1
133 to 135	CC(=O)c1ccc(OCCCOc2ccc(C(=O)C(=O)O)cc2)cc1O
154 to 155	O=C(CCCCNC(=O)c1cn2c3c(cccc13)CCC2)NOCc1ccccc1
100 to 102	N#Cc1c(C(F)(F)F)ccc(F)c1N
213	COC(=O)c1sccc1S(=O)(=O)N=C(N)NNc1nc(C)cc(C)n1
118 to 120	CCOC(=O)C1=C(COCCn2c(C)nc3ccccc32)NC2=C(C(=O)C(C)(C)CC2)C1c1ccccc1Cl (centres undefined)
82 to 90	CCOC(=O)C1C(=O)N(CC)c2cc3cc(C)oc3cc21 (centres undefined)
133 to 135	CC(=O)SCCC(=O)N(C)c1nnc(-c2cccnc2)s1
173 to 175	COc1cc(OC)c(C)c(C(=O)NCC23CC4CC(CC(C4)C2)C3)c1
63 to 66	CC(C)(C(Cl)c1ccc2c(c1)OCO2)[N+](=O)[O-] (centres undefined)
94 to 96	CCOC(=O)c1[nH]c(CC)c(CC(C)C)c1C
181 to 182	CCOC(=O)c1cc2cc(C#N)ccc2[nH]1
91 to 92	O=C(NCCCOc1ccccn1)c1cccs1
84	CCC(=O)Oc1ccc2c(=O)c(C(=O)CC)c(CC)oc2c1
263 to 265	O=C(O)CCc1c(C=C2C(=O)Nc3ccccc32)[nH]c2c1CCCC2

melting point [°C]	Compound
41	O=[N+]([O-])c1cc2c(cc1Oc1ccccc1)CCC2
166 to 168	COC(=O)CNC(=O)c1ccc(I)cc1
124 to 125	Fc1cccc([C@@H]2COCC(=S)N2)c1
118 to 120	Cc1nnc(C(=O)CCCCCCOc2ccc(OCc3ccccc3)cc2)o1
73 to 75	CC(O)(c1nc2ccc([N+](=O)[O-])cc2[nH]1)C(F)(F)F (centres undefined)
135 to 139	CCCCC(OC(=O)Nc1ccc(-c2ncn(-c3ccc(OC(F)(F)F)cc3)n2)cc1)C(=O)OCC (centres undefined)
53 to 54	O=C(C1(F)CC1Cc1ccc(Cl)cc1)C1(F)CC1Cc1ccc(Cl)cc1 (centres undefined)
162	OCC1OC(n2c(C(F)(F)F)nc3c(Cl)cc(Cl)cc32)C(O)C1O (centres undefined)
195 to 197	COc1ccc(N2CCOCC2)c2sc(-c3nc4c([nH]3)CCN(C(C)=O)CC4)nc12
200 to 201	Oc1ccc2c(c1)C(Cc1ccnc(F)c1)(Cc1ccnc(F)c1)c1ccccc1-2
100 to 102	CC(C)Nc1ccc(NC(=O)C2(C)CC2)cc1C(F)(F)F
112 to 114	CCOCCc1cc(C)c(OCCN2C(C)C(Br)=C(C(N)=O)N2C)c(C)c1 (centres undefined)
153 to 155	Cc1c(OCC(F)(F)F)ccnc1CSc1nc2ccccc2n1NC(=O)OC(C)(C)C
190 to 193	COc1cc2c(cc1F)C(=Cc1ccc(S(C)=O)cc1)C(C)=C2CC(=O)O (centres undefined)
203 to 204	Cc1ncnc(C)c1C(=O)O
220 to 222	CC(C)(C)c1cc(-c2nc3ccc(O)cc3o2)ccc1O
186 to 188	COc1cc(OCCN2CCOCC2)c(C=CC(=O)c2ccc(S(N)(=O)=O)cc2)cc1-c1cccs1
85 to 87	CCOC(=O)c1c(C)nc(N2CCN(c3ccccc3)CC2)c2nccnc12
79 to 82	Cc1ccc(-c2ccn(C(C)C(=O)N(C)C)n2)cc1 (centres undefined)
188 to 190	O=CNc1ccc(-c2ccncc2)cc1
287 to 288	COc1ccc2nc(C(=O)NCc3ccc(C(=O)O)cc3)[nH]c(=O)c2c1
218 to 220	O=C1CC2(C(=O)N1)C(=O)N(Cc1ccc(Br)cc1)c1ccccc12 (centres undefined)
207 to 209	COc1ccc(OC)c(NC(=O)c2cc(Br)ccc2O)c1
110 to 111	COc1ccc(Cn2c(=O)c3ccccc3n(CCCCCCl)c2=O)cc1

melting point [°C]	Compound
167 to 170	CCCc1nc2ccccc2c(C(=O)O)c1Oc1ccc(-c2ccccc2-c2nnn(C(c3ccccc3)(c3ccccc3)c3ccccc3)n2)cc1
96 to 98	CCCCN(CCCC)c1nc(-c2ccc(OC)cc2)nc2sc(C#N)c(C)c12
158 to 161	Nc1ccc(C(=O)Nc2ccccc2C(c2ccc(O)cc2)c2ccc(O)cc2)cc1
108 to 110	CSC1=C(c2ccc(O)cc2)C(=O)c2ccc(O)cc21
106 to 110	COc1ccc(CNc2cc[nH]n2)cc1OC1CCCC1
147 to 148	CC1CC(N)=NN1c1cncc(Cl)n1 (centres undefined)
112 to 115	CCOC(=O)CN(Cc1ccccc1)c1ncnc2c(N3CCOCC3)nc(N3CCC(N(C)C)CC3)nc12
158 to 160	COc1ccc(C(=O)Nc2ccccc2C(O)C2CCCCN2)cc1 (centres undefined)
221 to 223	N#Cc1cccc(-c2cc(-c3ccc(C#N)cc3Cl)no2)c1
240	CCCCc1nc(CO)c(S(=O)CC)n1Cc1ccc(-c2ccccc2C(=O)O)cc1 (centres undefined)
277 to 279	O=C(O)CN1C(=O)C(=Cc2c3ccccc3cc3ccccc23)SC1=S
112 to 113	CCCC1(C)OC(=O)C(c2ccc(F)cc2)=C1c1ccc(S(C)(=O)=O)cc1 (centres undefined)
121 to 125	O=C(NCC12CC3CC(CC(C3)C1)C2)c1cc(-c2cccnc2N2CCC[C@H]2C(=O)O)ccc1Cl
127 to 129	COC(=O)C1=C(Cl)C(=O)CC(c2ccc(Cl)c(OC)c2F)N1 (centres undefined)
164 to 166	CCc1ccc(-c2nnc(N3CCC(O)CC3)nc2-c2ccc(CC)cc2)cc1
224 to 225	O=Cc1c[nH]c2cc(C(=O)NCC3CCCC3)ccc12
179	COc1cc(C(=O)N2Cc3ccc(C(=O)NCc4c(CO)cnc(C)c4O)n3Cc3ccccc32)ccc1-c1ccccc1C
107 to 109	CC(C)c1ccc(N(Cc2ccc(N(C)C)cc2)C(=O)C2CCCc3cc(OCc4ccccc4)ccc32)cc1 (centres undefined)
94.5 to 96	CC(=O)OC/C=C(\C)CCc1c(C)c(O)c(C)c(C)c1O
98 to 100	CCCCOC(=O)[C@H]1CN(c2ccc(C3CCSCC3)c(F)c2)C(=O)O1
170 to 172	O=C1NC(=O)C(Cc2ccc(OCCN3c4ccccc4Oc4ccccc43)cc2)S1 (centres undefined)

Compound	melting point [°C]
CCCc1c(C(=O)C(C)C)c2ccc(C(=O)O)cc2n1Cc1ccccc1I	210
N#CN=c1ncccn1Cc1ccc(Cl)nc1	218 to 220
O=C(NC1N=C(c2ccc(F)cc2)c2ccccc2NC1=O)OCc1ccccc1 (centres undefined)	> 260
O=C(Nc1cnc2ccccc2c1)c1cc2cc(F)ccc2n1Cc1cccc(F)c1	244 to 246
Clc1ccc2[nH]nc(N3CCNCC3)c2c1	60 to 62
Nc1cc(F)c(N2CCNCC2)cc1Cl	110
